# Experimental data from PubChem BioAssay AID1259411 (Chemical Carcinogenesis Research Information System (CCRIS), 2018).
# Active and inactive are the calls of the source. No rule for the calls is given here.
# Tested on: rodent carcinogenicity bioassays, tumor incidence
# Test: CCRIS carcinogenicity studies
# In short: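 Archive of carcinogenicity, mutagenicity, tumor promotion and tumor inhibition results drawn from journals, NCI reports and other sources, expert-reviewed; covers 1985-2011 and is no longer updated.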
compound,measurement,setting,value
CC1CN(N=O)CC(C)O1 (stereo not drawn),carcinogen call,"Species: FISH, Strain/Sex: SHASTA RAINBOW TROUT/MALE, FEMALE, Route: ORAL, Dose: 0, 1556 PPM IN DIET FOR 18 MO (STUDY DURATION: 18 MO), Tumor Site: Type of Lesion: LIVER: CARCINOMA, STOMACH: PAPILLOMA",active; positive
same,carcinogen call,"Species: HAMSTER, Strain/Sex: EUROPEAN/FEMALE, Route: GAVAGE, Dose: 0, 37 MG/KG 1/WK FOR DURATION OF STUDY (STUDY DURATION: LIFETIME), Tumor Site: Type of Lesion: NASAL CAVITY: TUMOR, TRACHEA: TUMOR, LIVER: HEMANGIOENDOTHELIOMA, Tumor Site: Type of Lesion: NASAL CAVITY: TUMOR, TRACHEA: TUMOR, LIVER: HEMANGIOENDOTHELIOMA",active; positive
same,carcinogen call,"Species: HAMSTER, Strain/Sex: EUROPEAN/FEMALE, Route: GAVAGE, Dose: 0, 112 MG/KG 1/WK FOR DURATION OF STUDY (STUDY DURATION: LIFETIME), Tumor Site: Type of Lesion: NASAL CAVITY: TUMOR, TRACHEA: TUMOR, LUNG: TUMOR, Tumor Site: Type of Lesion: NASAL CAVITY: TUMOR, TRACHEA: TUMOR, LUNG: TUMOR",active; positive
same,carcinogen call,"Species: HAMSTER, Strain/Sex: EUROPEAN/FEMALE, Route: SUBCUTANEOUS, Dose: 0, 85 MG/KG 1/WK FOR DURATION OF STUDY (STUDY DURATION: LIFETIME), Tumor Site: Type of Lesion: NASAL CAVITY: TUMOR, LARYNX: TUMOR, TRACHEA: TUMOR, LUNG: TUMOR, Tumor Site: Type of Lesion: NASAL CAVITY: TUMOR, LARYNX: TUMOR, TRACHEA: TUMOR, LUNG: TUMOR",active; positive
same,carcinogen call,"Species: HAMSTER, Strain/Sex: EUROPEAN/MALE, Route: GAVAGE, Dose: 0, 37 MG/KG 1/WK FOR DURATION OF STUDY (STUDY DURATION: LIFETIME), Tumor Site: Type of Lesion: NASAL CAVITY: TUMOR, LIVER: HEMANGIOENDOTHELIOMA",active; positive
same,carcinogen call,"Species: HAMSTER, Strain/Sex: EUROPEAN/MALE, Route: GAVAGE, Dose: 0, 112 MG/KG 1/WK FOR DURATION OF STUDY (STUDY DURATION: LIFETIME), Tumor Site: Type of Lesion: NASAL CAVITY: TUMOR, LUNG: TUMOR",active; positive
same,carcinogen call,"Species: HAMSTER, Strain/Sex: EUROPEAN/MALE, Route: SUBCUTANEOUS, Dose: 0, 85 MG/KG 1/WK FOR DURATION OF STUDY (STUDY DURATION: LIFETIME), Tumor Site: Type of Lesion: NASAL CAVITY: TUMOR, LARYNX: TUMOR, TRACHEA: TUMOR, LUNG: TUMOR, Tumor Site: Type of Lesion: NASAL CAVITY: TUMOR, LARYNX: TUMOR, TRACHEA: TUMOR, LUNG: TUMOR",active; positive
same,carcinogen call,"Species: HAMSTER, Strain/Sex: SYRIAN/MALE,FEMALE, Route: GAVAGE, Dose: 9-74 MG/KG 1/WK FOR LIFE, Tumor Site: Type of Lesion: PANCREAS, TRACHEA, LUNG, LIVER, NASAL CAVITY, FORESTOMACH, GALL BLADDER, LARYNX, Tumor Site: Type of Lesion: PANCREAS, TRACHEA, LUNG, LIVER, NASAL CAVITY, FORESTOMACH, GALL BLADDER, LARYNX",active; positive
same,carcinogen call,"Species: HAMSTER, Strain/Sex: SYRIAN/MALE,FEMALE, Route: SUBCUTANEOUS, Dose: 8, 16, 32 MG/KG 1/WK FOR LIFE, Dose: 8, 16, 32 MG/KG 1/WK FOR LIFE, Tumor Site: Type of Lesion: NASAL CAVITY, LARYNX, TRACHEA, LUNG, FORESTOMACH, PANCREAS, VAGINA, Tumor Site: Type of Lesion: NASAL CAVITY, LARYNX, TRACHEA, LUNG, FORESTOMACH, PANCREAS, VAGINA",active; positive
same,carcinogen call,"Species: RAT, Strain/Sex: F344/FEMALE, Route: INTRAVESICULAR, Dose: 0, 6 MG IN 0.2 ML ETHANOL: DEIONIZED WATER (1:3) 2/WK FOR 18 WK (TOTAL DOSE 1.5 MMOL) (STUDY DURATION: LIFESPAN), Tumor Site: Type of Lesion: ESOPHAGUS: TUMOR",active; positive
same,carcinogen call,"Species: RAT, Strain/Sex: F344/FEMALE, Route: ORAL, Dose: 20 MG/L IN DRINKING WATER FOR 30 WK, Tumor Site: Type of Lesion: ESOPHAGUS: PAPILLOMA, CARCINOMA, TONGUE: PAPILLOMA, CARCINOMA",active; positive
same,carcinogen call,"Species: RAT, Strain/Sex: F344/FEMALE, Route: ORAL, Dose: 50 MG/L IN DRINKING WATER FOR 22 WK, Tumor Site: Type of Lesion: ESOPHAGUS: PAPILLOMA, CARCINOMA",active; positive
same,carcinogen call,"Species: RAT, Strain/Sex: SPRAGUE-DAWLEY/MALE,FEMALE, Route: SUBCUTANEOUS, Dose: 0, 1/100, 1/10 OF LD50 1/WK FOR LIFE (STUDY DURATION: LIFETIME), Dose: 0, 1/100, 1/10 OF LD50 1/WK FOR LIFE (STUDY DURATION: LIFETIME), Tumor Site: Type of Lesion: ESOPHAGUS: CARCINOMA",active; positive
same,carcinogen call,"Species: RAT, Strain/Sex: SPRAGUE-DAWLEY/MALE,FEMALE, Route: SUBCUTANEOUS, Dose: 0, 1/100, 1/10 OF LD50 1/WK FOR LIFE TO RATS WITH ESOPHAGOJEJUNOSTOMY (STUDY DURATION: LIFETIME), Dose: 0, 1/100, 1/10 OF LD50 1/WK FOR LIFE TO RATS WITH ESOPHAGOJEJUNOSTOMY (STUDY DURATION: LIFETIME), Tumor Site: Type of Lesion: ESOPHAGUS: CARCINOMA",active; positive
same,carcinogen call,"Species: RAT, Strain/Sex: SPRAGUE-DAWLEY/MALE, Route: ORAL, Dose: 50 MG/L IN DRINKING WATER (20 ML/D 5 D/WK) FOR 30 WK, Tumor Site: Type of Lesion: ESOPHAGUS: PAPILLOMA, SQUAMOUS CELL CARCINOMA, NASAL TURBINATES: ADENOCARCINOMA",active; positive
O=C(O)[C@@H]1[C@H](C(=O)O)[C@H]2CC[C@@H]1O2,carcinogen call,"Species: Mouse, Strain/Sex: Crl, CD-1(ICR)BR/Male and female (60/Group), Route: Oral, Dose: 0, 750, 1500 ppm of endothal disodium, purity 19-23.1%, in diet for at least 78 wk, study duration 18 mo, Dose: 0, 750, 1500 ppm of endothal disodium, purity 19-23.1%, in diet for at least 78 wk, study duration 18 mo, Tumor Site: Type of Lesion: Duodenum and jejunum: increased incidence of tumors in high dose group",active; positive (results not described separately for each sex)
same,carcinogen call,"Species: Rat, Strain/Sex: Cr, CD(SD)BR/Female (62/group), Route: Oral, Dose: Nominal concentrations of 0, 300, 900, 1800 ppm in diet for 104 wk, study duration 104 wk (actual concentration about 18, 300, 900, Tumor Site: Type of Lesion: Uterus: endometrial stromal tumors (0, 0, 4/60, 5/59)",active; positive (ca department of pesticide regulation evaluator described as a possibl
same,carcinogen call,"Species: Rat, Strain/Sex: Cr, CD(SD)BR/Male (62/group), Route: Oral, Dose: Nominal concentrations of 0, 300, 900, 1800 ppm in diet for 104 wk, study duration 104 wk (actual concentration about 18, 300, 900",inactive; negative
CCOC(=O)CC(SP(=S)(OC)OC)C(=O)OCC (stereo not drawn),carcinogen call,"Species: MOUSE, Strain/Sex: B6C3F1/FEMALE, Route: ORAL, Dose: 0, 8000, 16000 PPM IN DIET, Dose: 0, 8000, 16000 PPM IN DIET",inactive; negative
same,carcinogen call,"Species: MOUSE, Strain/Sex: B6C3F1/MALE, Route: ORAL, Dose: 0, 8000, 16000 PPM IN DIET, Dose: 0, 8000, 16000 PPM IN DIET",inactive; negative
same,carcinogen call,"Species: RAT, Strain/Sex: F344/FEMALE, Route: ORAL, Dose: 0, 2000, 4000 PPM IN DIET, Dose: 0, 2000, 4000 PPM IN DIET",inactive; negative
same,carcinogen call,"Species: RAT, Strain/Sex: F344/MALE, Route: ORAL, Dose: 0, 2000, 4000 PPM IN DIET, Dose: 0, 2000, 4000 PPM IN DIET",inactive; negative
same,carcinogen call,"Species: RAT, Strain/Sex: OSBORNE-MENDEL/FEMALE, Route: ORAL, Dose: 0, 4700, 8150 PPM IN DIET, TWA FOR 80 WK, Dose: 0, 4700, 8150 PPM IN DIET, TWA FOR 80 WK",inactive; negative
same,carcinogen call,"Species: RAT, Strain/Sex: OSBORNE-MENDEL/MALE, Route: ORAL, Dose: 0, 4700, 8150 PPM IN DIET, TWA FOR 80 WK, Dose: 0, 4700, 8150 PPM IN DIET, TWA FOR 80 WK",inactive; negative
NCC(=O)O,carcinogen call,"Species: RAT, Strain/Sex: F344/FEMALE, Route: ORAL, Dose: 0, 2.5, 5% IN DRINKING WATER FOR 108 WK (STUDY DURATION: 108 WK), Dose: 0, 2.5, 5% IN DRINKING WATER FOR 108 WK (STUDY DURATION: 108 WK)",inactive; negative
same,carcinogen call,"Species: RAT, Strain/Sex: F344/MALE, Route: ORAL, Dose: 0, 2.5, 5% IN DRINKING WATER FOR 108 WK (STUDY DURATION: 108 WK), Dose: 0, 2.5, 5% IN DRINKING WATER FOR 108 WK (STUDY DURATION: 108 WK)",inactive; negative
O=[N+]([O-])c1ccc2ccc3c4ccccc4c([N+](=O)[O-])c4ccc1c2c43,carcinogen call,"Species: RAT, Strain/Sex: F344/MALE, Route: SUBCUTANEOUS IMPLANT, Dose: 0, 8, 40, 200, 1000 UG IN 50 µL BEESWAX/TRICAPRYLIN IMPLANTED FOR UP TO 45 WK (STUDY DURATION: 45 WK), Dose: 0, 8, 40, 200, 1000 UG IN 50 µL BEESWAX/TRICAPRYLIN IMPLANTED FOR UP TO 45 WK (STUDY DURATION: 45 WK), Tumor Site: Type of Lesion: IMPLANT SITE: TUMOR",active; positive
same,carcinogen call,"Species: RAT, Strain/Sex: F344/MALE, Route: SUBCUTANEOUS, Dose: 0, 8, 40, 200, 1000 UG SUSPENDED IN BEESWAX/TRICAPRYLIN (1:1) ONCE (STUDY DURATION: LIFETIME), Dose: 0, 8, 40, 200, 1000 UG SUSPENDED IN BEESWAX/TRICAPRYLIN (1:1) ONCE (STUDY DURATION: LIFETIME), Tumor Site: Type of Lesion: SUBCUTANEOUS TISSUE: TUMOR",active; positive
